Where two headings read alike, the source gives them in different places. Blank lines part the entries; values can stand above or below the compound they belong to.
Experiments:
VAChT = molecular target: T1, VAChT (Rattus norvegicus, UniProt Q62666); experiment: VAChT in vitro competitive binding with (-)-[3H]vesamicol in rat brain preparations; conditions: read-out: Ki VAChT
T1 construct: The rats were sacrificed 60 minutes after injection and their brains collected; from tissue; host or cells: brain of live male Sprague-Dawley rats (in vivo)
T1 sequence (Q62666 1-530): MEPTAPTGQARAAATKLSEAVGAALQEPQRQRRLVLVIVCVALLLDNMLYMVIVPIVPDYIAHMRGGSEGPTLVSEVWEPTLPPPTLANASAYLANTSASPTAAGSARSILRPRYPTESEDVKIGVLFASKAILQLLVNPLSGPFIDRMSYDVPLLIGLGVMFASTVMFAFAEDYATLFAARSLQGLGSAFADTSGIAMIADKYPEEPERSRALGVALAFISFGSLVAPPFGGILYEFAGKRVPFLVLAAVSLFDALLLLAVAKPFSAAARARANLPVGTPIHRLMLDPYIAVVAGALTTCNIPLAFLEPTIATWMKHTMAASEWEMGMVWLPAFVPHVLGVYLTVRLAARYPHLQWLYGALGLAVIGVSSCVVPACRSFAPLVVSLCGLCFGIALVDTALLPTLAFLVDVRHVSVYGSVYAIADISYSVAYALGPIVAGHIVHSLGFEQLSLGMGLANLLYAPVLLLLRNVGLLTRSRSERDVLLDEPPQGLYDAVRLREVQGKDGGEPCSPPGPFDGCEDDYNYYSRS

σ-2 receptor = molecular target: T2, σ-2 receptor (Rattus norvegicus, UniProt Q5U3Y7); experiment: σ-2 receptor competitive binding with [3H]DTG in rat liver preparations; conditions: read-out: Ki σ-2
T2 construct: Rat liver preparations (about 100 μg protein) were incubated in quadruplicate; from tissue; host or cells: liver of male Sprague-Dawley rats
T2 sequence (Q5U3Y7 1-176): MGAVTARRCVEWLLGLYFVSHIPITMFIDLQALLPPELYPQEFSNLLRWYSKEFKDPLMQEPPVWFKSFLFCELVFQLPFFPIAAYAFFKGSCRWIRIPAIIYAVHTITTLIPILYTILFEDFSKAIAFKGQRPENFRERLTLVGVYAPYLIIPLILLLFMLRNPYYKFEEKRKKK

σ-1 receptor = σ-1 receptor (Rattus norvegicus, UniProt Q9R0C9); experiment: σ-1 receptor competitive binding with (+)-[3H]pentazocine in rat cerebrum preparations
σ-1 receptor, sequence (Q9R0C9 whole entry): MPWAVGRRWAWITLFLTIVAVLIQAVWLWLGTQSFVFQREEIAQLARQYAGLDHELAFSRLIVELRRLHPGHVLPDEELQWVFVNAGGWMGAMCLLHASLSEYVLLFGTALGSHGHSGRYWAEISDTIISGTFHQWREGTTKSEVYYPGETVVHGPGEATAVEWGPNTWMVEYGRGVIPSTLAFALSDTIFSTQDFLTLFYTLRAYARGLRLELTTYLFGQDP

[1] = parameters: method as in PMID 24174343; conditions: previous report; cited from earlier work

Structure (SMILES): OC1CC2CCCCC2CC1N1CCC(c2ccccc2)CC1 (stereo not shown) [DV, decalinvesamicol]
Ki (VAChT; rat brain preparations, (-)-[3H]vesamicol, 200 nM DTG to mask sigma receptors, 37°C 60 min, mean ± SD): 8.6 ± 2.5 nM
Ki (σ-2 receptor; rat liver preparations, 5 nM [3H]DTG, 1 μM (+)-pentazocine to mask σ-1, 37°C 90 min, mean ± SD): 65.9 ± 12.1 nM
Ki (σ-1 receptor; read-out: Ki σ-1, rat cerebrum preparations, 5 nM (+)-[3H]pentazocine, 37°C 90 min, mean ± SD): 74.4 ± 12 nM

Structure (SMILES): OC1C[C@@H]2CCCC[C@H]2CC1N1CCC(c2ccccc2[125I])CC1 (mixture of isomers) [racemic [^125I]OIDV]
radiolabeled metabolites in the brain [1]: unable to observe the presence of radiolabeled metabolites in the brain

Ki (VAChT): 22.1 ± 4.3 nM
Ki (σ-2 receptor): 59.9 ± 10.6 nM
Ki (σ-1 receptor): 168 ± 47.2 nM
Structure (SMILES): O[C@@H]1C[C@H]2CCCC[C@@H]2C[C@H]1N1CCC(c2ccccc2I)CC1 [(-)-OIDV]

From paper PMC4713475, “In Vivo Differences between Two Optical Isomers of Radioiodinated o-iodo-trans-decalinvesamicol for Use as a Radioligand for the Vesicular Acetylcholine Transporter” (PLoS ONE, 2016)
